The text below walks through data of patent publication US12180207B2 (ARRAY BIOPHARMA INC., priority 2018, dated 2024).

Broadly, the IC50 is the concentration that inhibits the measured activity by half.

The target in assay [1] is dephosphorylated FGFR1 (SEQ ID NO: 1, amino acids 458 to 765) (Homo sapiens (Human), UniProt P11362). Kind of assay: FGFR enzyme binding assay (HTRF tracer displacement), FGFR1. The conditions noted are these: 5 nM dephosphorylated FGFR1, average of multiple determinations if made. The procedure, abridged: (§1)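 Compounds were tested for displacement of a tracer from human FGFR kinase in a time-resolved FRET binding format. After 60 minutes at 22° C, signal was read at two wavelengths and converted to percent of control, normalised between untreated wells and 1 μM reference inhibitor.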
(In general: Time-resolved FRET reads energy transfer from a long-lived donor to a nearby acceptor.)

Assay [2] deals with phosphorylated FGFR3 (SEQ ID NO: 5, amino acids 449 to 759) (Homo sapiens (Human), UniProt P22607). Kind of assay: FGFR enzyme binding assay (HTRF tracer displacement), FGFR3. The conditions noted are these: 5 nM phosphorylated FGFR3, average of multiple determinations if made. The method, boiled down:
as §1

Assay [3] has as its target recombinant human FGFR1 catalytic domain (amino acids 308-731) (Homo sapiens (Human), UniProt P11362). Kind of assay: FGFR1 enzyme activity assay (LanthaScreen TR-FRET). Type of assay: biochemical. The conditions noted are these: 20 min incubation at 22° C., average of multiple determinations if made, read-out: FGFR1 Enz FRET IC50. The procedure, abridged: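 His-tagged FGFR1 kinase domain with 100 nM Alexa Fluor 647-poly-GT peptide and ATP in pH 7.5 HEPES/MgCl2 buffer with 2% DMSO, 20 min at 22 °C. Quenched with EDTA plus 2 nM Eu-PY20 antibody and read after 60 min. IC50 comes from a 4-parameter fit of percent of control.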

The target of assay [4] is recombinant human FGFR2 cytoplasmic domain (amino acids 403-822) (Homo sapiens (Human), UniProt P21802). Kind of assay: FGFR2 enzyme activity assay (LanthaScreen TR-FRET). Type of assay: biochemical. The conditions noted are these: 15 μM ATP, 20 min incubation at 22° C., average of multiple determinations if made, read-out: FGFR2 Enz FRET IC50. The procedure, abridged: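 His-tagged FGFR2 cytoplasmic domain ([…]) with 100 nM Alexa Fluor 647-poly-GT peptide and 15 μM ATP in HEPES/MgCl2/Triton buffer, pH 7.5, 2% DMSO, 20 min at 22 °C. EDTA-quenched, Eu-PY20 antibody added, TR-FRET read after 60 min.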

In assay [5] the target is recombinant human FGFR3 (amino acids R397-T806) (Homo sapiens (Human), UniProt P22607). The assay can be described thus: FGFR3 enzyme activity assay (LanthaScreen TR-FRET). The conditions noted are these: 25 μM ATP, 10 min incubation at 22° C., average of multiple determinations if made, read-out: FGFR3 Enz FRET IC50. Type of assay: biochemical. The method, boiled down:
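GST-HIS6-tagged human FGFR3 (R397-T806) was reacted with 100 nM Alexa Fluor 647-Poly-GT substrate and 25 μM ATP plus compound in HEPES/MgCl2/Triton buffer, pH 7.5, 2% DMSO, for 10 min at 22 °C.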

Assay [6] addresses FGFR1 (SEQ ID NO: 1, amino acids 458-765) (Homo sapiens (Human), UniProt P11362). Kind of assay: LC/MS FGFR1 kobs assay (covalent protein modification). The conditions noted are these: 500 nM FGFR1, 3 μM compound. The assay is classed as binding. As to the method: The LC/MS FGFR1 and FGFR3 kobs assays were conducted as follows. […] At each time point, the reaction was quenched with 20 μL of 0.4% formic acid. The extent of protein modification by each compound was determined by LC/MS on an Agilent Technologies 6520 Q-TOF LC/MS. Protein signals were then automatically deconvoluted using Agilent Masshunter software. Deconvoluted mass signals were exported to Tibco Spotfire data analysis program for further processing and normalization.
Data analysis included five steps. First, the signals for the “DMSO Controls” were analyzed to determine the percent of signal associated with unmodified FGFR1 or FGFR3 at each time point. Next, the percent of the signal associated with the covalent modification was determined. Third, the average nonmodified “DMSO Control” signal was used to normalize the modified protein signals at each time point. The percent of unmodified protein was fit to an exponential decay model where A0 is the Percent Unmodified at the start of the reaction, and kobs is the observed rate constant over the time period.

Assay [7] has as its target FGFR3 (SEQ ID NO: 5, amino acids 449-759) (Homo sapiens (Human), UniProt P22607). The assay can be described thus: LC/MS FGFR3 kobs assay (covalent protein modification). Type of assay: binding. To be noted: 500 nM FGFR3, 3 μM compound. The procedure, abridged: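 Covalent modification of FGFR1 (aa 458-765) or FGFR3 (aa 449-759) followed over time; reactions quenched with 0.4% formic acid and analysed by Q-TOF LC/MS after deconvolution. Percent unmodified protein, normalized to DMSO controls, fit to exponential decay to give kobs; averaged where repeated.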

phosphorylated FGFR3 (SEQ ID NO: 5, amino acids 449 to 759), sequence (P22607 449-759): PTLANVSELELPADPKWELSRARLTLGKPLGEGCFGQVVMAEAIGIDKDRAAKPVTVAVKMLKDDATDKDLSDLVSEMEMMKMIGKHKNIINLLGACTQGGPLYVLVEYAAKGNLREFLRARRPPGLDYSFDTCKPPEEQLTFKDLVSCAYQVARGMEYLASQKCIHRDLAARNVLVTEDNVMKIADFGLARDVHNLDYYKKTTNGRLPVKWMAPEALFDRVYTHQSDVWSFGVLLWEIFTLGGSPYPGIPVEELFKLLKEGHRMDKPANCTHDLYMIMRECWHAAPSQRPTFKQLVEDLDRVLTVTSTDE
FGFR3 (SEQ ID NO: 5, amino acids 449-759), sequence (P22607 449-759): as above
recombinant human FGFR3 (amino acids R397-T806), sequence (P22607 397-806): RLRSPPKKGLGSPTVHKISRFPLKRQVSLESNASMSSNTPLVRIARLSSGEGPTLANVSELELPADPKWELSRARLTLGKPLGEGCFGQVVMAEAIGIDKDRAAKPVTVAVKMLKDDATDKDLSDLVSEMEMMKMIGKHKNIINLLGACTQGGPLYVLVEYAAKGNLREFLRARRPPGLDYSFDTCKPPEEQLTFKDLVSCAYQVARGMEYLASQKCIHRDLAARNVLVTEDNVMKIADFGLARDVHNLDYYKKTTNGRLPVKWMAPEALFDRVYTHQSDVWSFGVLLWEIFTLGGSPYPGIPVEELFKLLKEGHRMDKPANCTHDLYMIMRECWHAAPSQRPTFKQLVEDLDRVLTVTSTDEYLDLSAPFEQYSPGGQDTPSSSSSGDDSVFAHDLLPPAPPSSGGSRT
recombinant human FGFR1 catalytic domain (amino acids 308-731), sequence (P11362 other isoform, or with tags, fused parts or gaps): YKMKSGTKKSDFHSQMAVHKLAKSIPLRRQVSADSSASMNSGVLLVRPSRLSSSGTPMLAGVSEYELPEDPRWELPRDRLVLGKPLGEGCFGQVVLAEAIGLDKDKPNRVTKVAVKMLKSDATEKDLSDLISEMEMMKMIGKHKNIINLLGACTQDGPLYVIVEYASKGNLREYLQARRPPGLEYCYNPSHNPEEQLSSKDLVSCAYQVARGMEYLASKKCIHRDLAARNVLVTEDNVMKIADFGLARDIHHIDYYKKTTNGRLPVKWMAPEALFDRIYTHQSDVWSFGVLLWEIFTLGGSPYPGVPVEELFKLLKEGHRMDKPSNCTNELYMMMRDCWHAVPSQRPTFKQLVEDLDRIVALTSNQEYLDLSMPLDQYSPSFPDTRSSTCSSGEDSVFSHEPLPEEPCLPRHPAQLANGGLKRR
dephosphorylated FGFR1 (SEQ ID NO: 1, amino acids 458 to 765), sequence (P11362 458-765): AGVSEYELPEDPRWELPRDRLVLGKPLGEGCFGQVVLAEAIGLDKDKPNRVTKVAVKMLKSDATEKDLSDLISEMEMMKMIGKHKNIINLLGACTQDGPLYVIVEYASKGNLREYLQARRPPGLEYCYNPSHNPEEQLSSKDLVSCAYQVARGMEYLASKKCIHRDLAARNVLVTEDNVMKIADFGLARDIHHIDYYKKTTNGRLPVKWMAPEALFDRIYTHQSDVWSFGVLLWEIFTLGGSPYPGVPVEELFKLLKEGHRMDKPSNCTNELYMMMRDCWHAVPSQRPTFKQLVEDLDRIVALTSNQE
FGFR1 (SEQ ID NO: 1, amino acids 458-765), sequence (P11362 458-765): as above
recombinant human FGFR2 cytoplasmic domain (amino acids 403-822), sequence (P21802 402-821): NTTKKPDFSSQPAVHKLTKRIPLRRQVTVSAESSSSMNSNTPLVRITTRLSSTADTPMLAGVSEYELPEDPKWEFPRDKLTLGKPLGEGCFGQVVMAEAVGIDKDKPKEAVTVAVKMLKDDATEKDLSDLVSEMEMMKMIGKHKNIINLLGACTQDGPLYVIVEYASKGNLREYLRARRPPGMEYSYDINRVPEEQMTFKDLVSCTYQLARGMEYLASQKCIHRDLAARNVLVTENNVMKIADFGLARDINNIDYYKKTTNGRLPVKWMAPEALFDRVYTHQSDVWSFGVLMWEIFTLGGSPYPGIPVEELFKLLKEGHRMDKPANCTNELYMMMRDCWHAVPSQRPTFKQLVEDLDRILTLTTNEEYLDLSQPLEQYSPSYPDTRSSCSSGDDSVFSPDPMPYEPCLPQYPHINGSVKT

On to `COc1cc(-c2cnn(C3CN(CC4CN(C(=O)/C=C/CN5CCCCC5)C4)C3)c2)cn2ncc(C#N)c12` [Example 149, (E)-4-methoxy-6-(1-(1-((1-(4-(piperidin-1-yl)but-2-enoyl)azetidin-3-yl)methyl)azetidin-3-yl)-1H-pyrazol-4-yl)pyrazolo[1,5-a]pyridine-3-carbonitrile], for which the IC50 in assay [1] was 229 nM; in assay [2] it was 33 nM; in assay [3] it was 39 nM; in assay [4] it was 6 nM; in assay [5], 4 nM. The “FGFR1 Enz kobs” value in assay [6] is 0.00121 min⁻¹. The “FGFR3 Enz kobs” value in assay [7] was found to be 0.00455 min⁻¹.
`C=CC(=O)NC1CCN(C(=O)c2ccc(-c3cc(OC)c4c(C#N)cnn4c3)cc2)CC1` [Example 165, N-(1-(4-(3-cyano-4-methoxypyrazolo [1,5-a]pyridin-6-yl)benzoyl)piperidin-4-yl)acrylamide]: the IC50 in assay [1] stood at 800 nM; in assay [2] it was 223 nM; in assay [3], 62 nM; in assay [4], 18 nM; in assay [5] it was 15 nM. For the same compound, the “FGFR1 Enz kobs” value in assay [6] is 0.00005 min⁻¹. The “FGFR3 Enz kobs” value in assay [7] was 0.0002 min⁻¹.
As for `C=CC(=O)N1CC[C@@H](C(=O)N2CCN(c3ccc(-c4cc(OC)c5c(C#N)cnn5c4)cn3)CC2)C1` [Example 110, (R)-6-(6-(4-(1-acryloylpyrrolidine-3-carbonyl)piperazin-1-yl)pyridin-3-yl)-4-methoxypyrazolo[1,5-a]pyridine-3-carbonitrile], the IC50 in assay [1] stood at 58 nM; in assay [2], 8 nM; in assay [3], 16 nM; in assay [4] it was 5 nM; in assay [5], 6 nM. The “FGFR1 Enz kobs” value in assay [6] amounted to 0.00068 min⁻¹. Besides, the “FGFR3 Enz kobs” value in assay [7] is 0.00626 min⁻¹.
Take `C=CC(=O)N1CC2(CC(C(=O)N3CCC(n4cc(-c5cc(OC)c6c(C#N)cnn6c5)cn4)CC3)C2)C1` [Example 47, 6-(1-(1-(2-acryloyl-2-azaspiro[3.3]heptane-6-carbonyl)piperidin-4-yl)-1H-pyrazol-4-yl)-4-methoxypyrazolo[1,5-a]pyridine-3-carbonitrile]: the IC50 in assay [1] turned out to be 177 nM; in assay [2] it was 22 nM; in assay [3], 35 nM; in assay [4], 5 nM; in assay [5] it was 4 nM. Further, the “FGFR1 Enz kobs” value in assay [6] was found to be 0.00093 min⁻¹. The “FGFR3 Enz kobs” value in assay [7] was determined as 0.00501 min⁻¹.
In the case of `C=CC(=O)N1CC[C@@H](C(=O)N2CC[C@@H](n3cc(-c4cc(OC)c5c(C#N)cnn5c4)cn3)C2)C1` [Example 58, 6-(1-((R)-1-((R)-1-acryloylpyrrolidine-3-carbonyl)pyrrolidin-3-yl)-1H-pyrazol-4-yl)-4-methoxypyrazolo[1,5-a]pyridine-3-carbonitrile], the IC50 in assay [1] was 290 nM; in assay [2] it was 41 nM; in assay [3], 55 nM; in assay [4], 8 nM; in assay [5], 8 nM. Moreover, the “FGFR1 Enz kobs” value in assay [6] was determined as 0.00058 min⁻¹. For the same compound, in assay [7], the “FGFR3 Enz kobs” value is 0.00158 min⁻¹.
Regarding `C=CC(=O)N1CC2CC(C1)N2C(=O)N1CCC(n2cc(-c3cc(OC)c4c(C#N)cnn4c3)cn2)CC1` [Example 4, 6-(1-(1-(3-acryloyl-3,6-diazabicyclo[3.1.1]heptane-6-carbonyl)piperidin-4-yl)-1H-pyrazol-4-yl)-4-methoxypyrazolo[1,5-a]pyridine-3-carbonitrile], the IC50 stood at 42 nM in assay [1]; 6 nM in assay [2]; 11 nM in assay [3]; 4 nM in assay [4]; 3 nM in assay [5]. Further, the “FGFR1 Enz kobs” value in assay [6] came to 0.00052 min⁻¹. Besides, in assay [7], the “FGFR3 Enz kobs” value amounted to 0.00283 min⁻¹.
Regarding `C=CC(=O)N1CC(C(=O)N2CCN(c3ncc(-c4cc(OC)c5c(C#N)cnn5c4)cn3)CC2)C1` [Example 133, 6-(2-(4-(1-acryloylazetidine-3-carbonyl)piperazin-1-yl)pyrimidin-5-yl)-4-methoxypyrazolo[1,5-a]pyridine-3-carbonitrile], the IC50 in assay [1] was determined as 2930 nM; in assay [2], 160 nM; in assay [3], 119 nM; in assay [4] it was 63 nM; in assay [5], 264 nM. Besides, the “FGFR1 Enz kobs” value in assay [6] stood at 0.00274 min⁻¹. In assay [7], the “FGFR3 Enz kobs” value was determined as 0.02206 min⁻¹.
As for `C=CC(=O)N1CCC(C(=O)N2CC(n3cc(-c4cc(OC)c5c(C#N)cnn5c4)cn3)C2)CC1` [Example 75, 6-(1-(1-(1-acryloylpiperidine-4-carbonyl)azetidin-3-yl)-1H-pyrazol-4-yl)-4-methoxypyrazolo[1,5-a]pyridine-3-carbonitrile], the IC50 in assay [1] was 120 nM; in assay [2], 22 nM; in assay [3] it was 39 nM; in assay [4] it was 14 nM; in assay [5] it was 13 nM. Moreover, the “FGFR1 Enz kobs” value in assay [6] was determined as 0.00081 min⁻¹. Further, in assay [7], the “FGFR3 Enz kobs” value is 0.002 min⁻¹.
In the case of `C=CC(=O)N[C@H]1C[C@@H](C(=O)N2CC(n3cc(-c4cc(OC)c5c(C#N)cnn5c4)cn3)C2)C1` [Example 80, N-((1s,3s)-3-(3-(4-(3-cyano-4-methoxypyrazolo[1,5-a]pyridin-6-yl)-1H-pyrazol-1-yl)azetidine-1-carbonyl)cyclobutyl)acryl-amide], the IC50 stood at 174 nM in assay [1]; 22 nM in assay [2]; 26 nM in assay [3]; 7 nM in assay [4]; 7 nM in assay [5]. Besides, the “FGFR1 Enz kobs” value in assay [6] was 0.00024 min⁻¹. In addition, the “FGFR3 Enz kobs” value in assay [7] worked out at 0.00111 min⁻¹.
Turning to `C=CC(=O)N1CCC(NC(=O)c2ccc(-c3cc(OC)c4c(C#N)cnn4c3)cc2)CC1` [Example 166, N-(1-acryloylpiperidin-4-yl)-4-(3-cyano-4-methoxypyrazolo [1,5-a]pyridin-6-yl)benzamide], the IC50 in assay [1] came to 129 nM; in assay [2] it was 48 nM; in assay [3], 61 nM; in assay [4], 15 nM; in assay [5] it was 14 nM. Moreover, the “FGFR1 Enz kobs” value in assay [6] came to 0.00032 min⁻¹. The “FGFR3 Enz kobs” value in assay [7] was found to be 0.00177 min⁻¹.
Take `C=CC(=O)N1CCC[C@@H](C(=O)N2CCC(n3cc(-c4cc(OC)c5c(C#N)cnn5c4)cn3)CC2)C1` [Example 17, (R)-6-(1-(1-(1-acryloylpiperidine-3-carbonyl)piperidin-4-yl)-1H-pyrazol-4-yl)-4-methoxypyrazolo[1,5-a]pyridine-3-carbonitrile]: the half-inhibitory concentration (IC50) came to 45 nM in assay [1]; 8 nM in assay [2]; 17 nM in assay [3]; 7 nM in assay [4]; 6 nM in assay [5]. Also, the “FGFR1 Enz kobs” value in assay [6] came out at 0.00041 min⁻¹. The “FGFR3 Enz kobs” value in assay [7] was determined as 0.00163 min⁻¹.
Turning to `C=CC(=O)N1CCC2(CC1)CC(C(=O)N1CCC(n3cc(-c4cc(OC)c5c(C#N)cnn5c4)cn3)CC1)C2` [Example 48, 6-(1-(1-(7-acryloyl-7-azaspiro[3.5]nonane-2-carbonyl)piperidin-4-yl)-1H-pyrazol-4-yl)-4-methoxypyrazolo[1,5-a]pyridine-3-carbonitrile], the IC50 in assay [1] was 109 nM; in assay [2], 25 nM; in assay [3], 11 nM; in assay [4], 3 nM; in assay [5] it was 7 nM. For the same compound, the “FGFR1 Enz kobs” value in assay [6] is 0.00071 min⁻¹. The “FGFR3 Enz kobs” value in assay [7] is 0.00114 min⁻¹.
